Consider one compound from patent US20220378739A1, “NATURAL KILLER CELL IMMUNOTHERAPY FOR THE TREATMENT OF GLIOBLASTOMA AND OTHER CANCERS” (BOARD OF REGENTS, THE UNIVERSITY OF TEXAS SYSTEM, priority 2019, published 2022).

One series deals with GSC targets. In words: NK cell functional assay (51Cr release; CD107a, IFN-γ, TNF-α) against GSC targets after co-culture with GSCs. In kind it is cell-based, human. As to conditions: 48 hours co-culture with GSCs 1:1; inhibitor 10 μM. How it is done:
(§1) NK cells were co-cultured for 5 hours with K562 or GSCs target cells at an optimized effector:target ratio of 5:1 together with CD107a PE-CF594 (BD Biosciences), monensin (BD GolgiStopTM) and BFA (Brefeldin A, Sigma Aldrich). NK cells were incubated without targets as the negative control and stimulated with PMA (50 ng/mL) and ionomycin ([…], Sigma Aldrich) as positive control. Cells were collected, washed and stained with surface antibodies (mentioned above), fixed/permeabilized (BD Biosciences) and stained with IFN-7 v450 and TNF-α Alexa700 (BD Biosciences) antibodies.
(§2) NK cell cytotoxicity was assessed using chromium (siCr) release assay. Briefly, K562 or GSCs target cells were labeled with siCr (PerkinElmer Life Sciences, Boston, Mass.) at 50 μCi/5×10^5 cells for 2 hours. ^51Cr-labeled K562/GSC targets (5×105) were incubated for 4 h with serially diluted magnetically isolated NK cells in triplicate. Supernatants were then harvested and analysed for ^51Cr content.
For studies of NK cell suppression by GSCs and human astrocytes, magnetically selected healthy NK cells were cultured in Serum-free Stem Cell Growth Medium (SCGM; CellGro/CellGenix) supplemented with 5% glutamine, 5 μM HEPES (both from GIBCO/Invitrogen), and 10% FCS (Biosera) in 96-well flat-bottomed plates (Nunc) at 100,000/100D11. […]

For series [1] the following is noted: literature; cited from earlier work.
The subject of series [2] is TiNKs / HC-NK cells rendered dysfunctional by GSCs. Nature of the series: Reversal of established NK cell dysfunction (TiNKs ex vivo; NK cell recovery assays). The format is cell-based, human. How it is done: FIGS. 11A-11G. […] (FIG. 11A) NK cells were incubated with or without galunisertinib (10 μM) or LY2109761 (10 μM) for 48 hours. Representative zebra plots show their CD107a, IFN-γ, and TNF-α response to K562 targets. NK cells were gated on CD3-CD56+ lymphocytes. Inset numbers are the percentages of CD107a-, IFN-γ- or TNF-α-positive NK cells within the gated NK cell population. (FIGS. 11B-11C) NK cells were cultured either alone or with GSCs in a 1:1 ratio with or without LY2109761 or galunisertib for 48 hrs. Representative zebra plots and summary box plots show their CD107, IFN-γ, and TNF-α expression response to K562 (FIG. 11B) or GSC (FIG. 11C) targets. Effector:target ratio is 5:1. NK cells were defined as CD3-CD56+ lymphocytes. Inset numbers are the percentages of CD107a-, IFN-γ- or TNF-α-positive NK cells (n=7, n=4 respectively). (FIG. 11D) TiNK cells were cultured for 24 hours in media with 5 ng/ml IL-15 with or without galunisertib. Representative zebra plots and bar graph summary show their CD107, IFN-γ, and TNF-α response to K562 targets. Effector:target ratio is 5:1. NK cells were gated on CD3-CD56+ lymphocytes. Inset numbers are the percentages of CD107a-, IFN-γ- or TNF-α-positive NK cells within the indicated regions. (n=3). (FIG. 11E) TiNK cells and paired PB-NK cells from GBM patients were cultured in the presence or absence of galunisertib for 12 hours. The bar graphs summarize the mean fluorescence intensity (MFI) for their p-Smad⅔ expression. Paired t test was performed to determine statistical significance (n=3). (FIG. 11F) Specific lysis (^51Cr release assay) of K562 targets by NK cells. After 48 hours of culture alone (blue lines) or with GSCs, healthy donor NK cells were either left with GSCs (red lines), or purified and re-suspended in media for another 48 hours (black lines). NK cells were then collected and used for ^51Cr release assay (n=4). (FIG. 11G) Specific lysis (^51Cr release assay) of K562 targets by NK cells. After 48 hours of culture alone (blue lines) or with GSCs, healthy donor NK cells were either left with GSCs ([…]) or purified and cultured in SCGM media plus 5 ng/ml IL-15 with (black lines) or without galunisertib (10 μM) (gray lines) for […]. At the end of the culture period, their cytotoxicity was tested against k562 targets by ^51Cr release assay (n=4).
NK cells were cultured either with GSCs in a 1:1 ratio or alone for 48 hours. After 48 hours of co-incubation, NK cells were then either purified again by bead selection and resuspended in SCGM media or remained in culture with GSCs for an additional 48 hours and then used for ^51Cr release assay. In a second assay, after reselection, NK cells were cultured for another 5 days in SCGM in the presence of 5 ng/ml IL-15 with or without 10 μM galunisertib before use for ^51Cr release assay.

A further series relates to K562 targets. In kind it is cell-based, human. To be noted: NK cells alone, inhibitor 10 μM, 48 hours. How it is done:
as §1, §2
For studies of NK cell suppression by GSCs and human astrocytes, magnetically selected healthy NK cells were cultured in Serum-free Stem Cell Growth Medium (SCGM; CellGro/CellGenix) supplemented with 5% glutamine, 5 μM HEPES (both from GIBCO/Invitrogen), and 10% FCS (Biosera) in 96-well flat-bottomed plates (Nunc) at 100,000/100D11. NK cells were co-cultured either alone (positive control) or with GSCs or astrocytes at a 1:1 ratio for 48 hours at 37° C. before performing functional assays to assess NK cells cytotoxicity.
GSCs and purified NK cells were co-cultured for 48 hours in the presence of anti-TGFβ 123 (5 μg/ml) (R&D), HLA-ABC blocking antibody (clone W 6/32, Biolegend), CD44 blocking antibody (clone IM7, Biolegend), ILT-2 (CD85J) blocking antibody (clone HP-F1, ThermoFisher), CD155 blocking antibody (clone D171, GenTex), CD112 blocking antibody (clone TX31, Biolegend), 10 μM LY2109761, 10 μM galunisertib (LY2157299), 10 μM Cilengitide (Cayman Chemical) or 1 μM MMP-2/MMP-9 inhibitor I (Millipore). Cytotoxicity assays were then performed as described above.

SMILES strings stand for the structures.

As for `Cc1cccc(-c2nn3c(c2-c2ccnc4ccc(C(N)=O)cc24)CCC3)n1` [galunisertib], the “GSC-induced NK cell dysfunction: natural cytotoxicity against GSC targets” value with GSC targets was “preserving the natural cytotoxicity of NK cells against K562 or GSC targets”. For the same compound, the “safety in glioblastoma patients” value in series [1] is recorded as “has been used safely in GBM patients”. Further, the “reversal of GSC-induced dysfunction of HC-NK cells” value in series [2] (NK cells purified after 48 hours with GSCs, then IL-15 5 ng/ml with or without galunisertib 10 μM) is on record as “did not reverse the dysfunction of HC-NK cells induced by GSCs”. Besides, the “restoration of TiNK function (specific lysis of K562; CD107, IFN-γ, TNF-α)” value in series [2] (TiNKs cultured 24 hours, galunisertib 10 μM or IL-15 5 ng/ml) is “failed to inactivate the TGF-β1 Smad⅔ signaling pathway and restore NK cell dysfunction”. Also, the “TGF-β1 Smad⅔ signaling in TiNKs” value in series [2] (TiNKs from GBM patients cultured ex vivo, galunisertib 12 hours or IL-15) is listed as “failed to inactivate the TGF-β1 Smad⅔ signaling pathway”. Also, the “NK cell function (CD107a, IFN-γ, TNF-α response to K562), NK cells without GSCs” value in the series on K562 targets is listed as “neither inhibitor affected NK cell function”.
